Assay results taken from ChEMBL document CHEMBL5316299, “Discovery of Novel Drug-like PHGDH Inhibitors to Disrupt Serine Biosynthesis for Cancer Therapy” (J Med Chem, 2023).

T1: D-3-phosphoglycerate dehydrogenase (Homo sapiens, UniProt O43175)
T1 sequence (O43175 whole entry): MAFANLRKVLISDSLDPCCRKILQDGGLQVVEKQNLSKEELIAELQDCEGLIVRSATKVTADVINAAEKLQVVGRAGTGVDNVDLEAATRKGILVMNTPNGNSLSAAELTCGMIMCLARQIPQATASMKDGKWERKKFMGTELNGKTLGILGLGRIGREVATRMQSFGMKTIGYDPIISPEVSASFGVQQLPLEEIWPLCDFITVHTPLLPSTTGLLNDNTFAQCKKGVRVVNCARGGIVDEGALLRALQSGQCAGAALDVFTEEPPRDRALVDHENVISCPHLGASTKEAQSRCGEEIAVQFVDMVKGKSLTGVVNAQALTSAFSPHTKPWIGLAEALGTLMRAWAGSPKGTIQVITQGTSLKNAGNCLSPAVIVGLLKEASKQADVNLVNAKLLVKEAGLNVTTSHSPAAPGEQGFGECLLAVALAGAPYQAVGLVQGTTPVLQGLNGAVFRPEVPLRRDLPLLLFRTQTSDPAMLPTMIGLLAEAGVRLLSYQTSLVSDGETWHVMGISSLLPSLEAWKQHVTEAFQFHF


Experiments:
[1] = system: MDA-MB-468; assay: Antiproliferative activity against human MDA-MB-468 cells expressing PHGDH assessed as reduction in cell viability measured for 72 hrs by CCK-8 assay; type: functional, cell-based; conditions: MDA-MB-468, 72 h
[2] = target: T1, D-3-phosphoglycerate dehydrogenase; assay: Inhibition of PHGDH (unknown origin) preincubated for 30 mins followed by substrate addition and measured after 5 mins
[3] = system: MCF-10A; assay: Antiproliferative activity against human MCF-10A cells assessed as reduction in cell viability measured for 72 hrs by CCK-8 assay; type: functional, cell-based
[4] = Microsomal stability in rat liver microsomes assessed as intrinsic clearance measured upto 60 mins by HPLC-MS/MS analysis; type: ADME, Microsome; conditions: 1 h
[5] = Microsomal stability in mouse liver microsomes assessed as intrinsic clearance measured upto 60 mins by HPLC-MS/MS analysis; type: ADME, Microsome; conditions: 1 h
[6] = Microsomal stability in human liver microsomes assessed as intrinsic clearance measured upto 60 mins by HPLC-MS/MS analysis; type: ADME, Microsome; conditions: 1 h
[7] = Microsomal stability in mouse liver microsomes assessed as half life measured upto 60 mins by HPLC-MS/MS analysis; type: ADME, Microsome
[8] = Microsomal stability in rat liver microsomes assessed as half life measured upto 60 mins by HPLC-MS/MS analysis; type: ADME, Microsome
[9] = Microsomal stability in human liver microsomes assessed as half life measured upto 60 mins by HPLC-MS/MS analysis; type: ADME, Microsome
[10] = target: T1, D-3-phosphoglycerate dehydrogenase; assay: Inhibition of wild type PHGDH (unknown origin) preincubated for 30 mins followed by substrate addition and measured after 5 mins
[11] = target: D-3-phosphoglycerate dehydrogenase (Homo sapiens, UniProt O43175, D175A); assay: Inhibition of PHGDH D175A mutant (unknown origin) preincubated for 30 mins followed by substrate addition and measured after 5 mins
Sequence of D-3-phosphoglycerate dehydrogenase (Homo sapiens, UniProt O43175, D175A) (O43175 2-533 D175A limits assumed): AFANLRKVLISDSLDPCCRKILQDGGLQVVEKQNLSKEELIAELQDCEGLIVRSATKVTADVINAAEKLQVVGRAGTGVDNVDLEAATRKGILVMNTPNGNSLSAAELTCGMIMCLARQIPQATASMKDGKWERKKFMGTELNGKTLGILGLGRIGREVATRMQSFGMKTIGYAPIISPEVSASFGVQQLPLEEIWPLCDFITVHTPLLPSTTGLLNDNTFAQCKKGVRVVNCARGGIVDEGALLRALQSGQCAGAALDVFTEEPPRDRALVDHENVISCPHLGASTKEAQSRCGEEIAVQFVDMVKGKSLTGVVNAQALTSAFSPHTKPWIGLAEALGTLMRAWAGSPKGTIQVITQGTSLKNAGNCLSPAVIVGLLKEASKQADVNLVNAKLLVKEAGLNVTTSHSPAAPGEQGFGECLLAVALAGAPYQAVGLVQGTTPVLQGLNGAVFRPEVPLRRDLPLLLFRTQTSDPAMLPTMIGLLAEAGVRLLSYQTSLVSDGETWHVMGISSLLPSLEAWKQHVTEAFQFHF

[12] = system: HCC827; assay: Antiproliferative activity against human HCC827 cells expressing PHGDH assessed as reduction in cell viability measured for 72 hrs by CCK-8 assay; type: functional, cell-based; conditions: HCC827, 72 h
[13] = system: HCT-116; assay: Antiproliferative activity against human HCT-116 cells expressing PHGDH assessed as reduction in cell viability measured for 72 hrs by CCK-8 assay; type: functional, cell-based; conditions: HCT-116, 72 h
[14] = system: NCI-H1975; assay: Antiproliferative activity against human NCI-H1975 cells expressing PHGDH assessed as reduction in cell viability measured for 72 hrs by CCK-8 assay; type: functional, cell-based; conditions: NCI-H1975, 72 h
[15] = system: PC-9; assay: Antiproliferative activity against human PC-9 cells expressing PHGDH assessed as reduction in cell viability measured for 72 hrs by CCK-8 assay; type: functional, cell-based; conditions: PC-9, 72 h
[16] = system: BT-20; assay: Antiproliferative activity against human BT-20 cells expressing PHGDH assessed as reduction in cell viability measured for 72 hrs by CCK-8 assay; type: functional, cell-based; conditions: BT-20, 72 h
[17] = substrate: CC(=O)c1cccc(NS(=O)(=O)c2ccc(C(=O)Nc3nc(-c4cccc(F)c4)cs3)cc2)c1; conditions: Homo sapiens; dose 3.1 µM, time 35.0 min
[18] = substrate: CC(=O)c1cccc(NS(=O)(=O)c2ccc(C(=O)Nc3nc(-c4cccc(F)c4)cs3)cc2)c1; conditions: Homo sapiens; dose 25.0 µM, time 35.0 min
[19] = substrate: CC(=O)c1cccc(NS(=O)(=O)c2ccc(C(=O)Nc3nc(-c4cccc(F)c4)cs3)cc2)c1; conditions: Homo sapiens; dose 25.0 µM, time 35.0 min; remark: listed apart in the source
[20] = substrate: CC(=O)c1cccc(NS(=O)(=O)c2ccc(C(=O)Nc3nc(-c4cccc(F)c4)cs3)cc2)c1; conditions: Homo sapiens; dose 6.3 µM, time 35.0 min
[21] = substrate: CC(=O)c1cccc(NS(=O)(=O)c2ccc(C(=O)Nc3nc(-c4cccc(F)c4)cs3)cc2)c1; conditions: Homo sapiens; dose 12.5 µM, time 35.0 min
[22] = substrate: CC(=O)c1cccc(NS(=O)(=O)c2ccc(C(=O)Nc3nc(-c4cccc(F)c4)cs3)cc2)c1; conditions: Homo sapiens; dose 12.5 µM, time 35.0 min; remark: listed apart in the source
[23] = substrate: CC(=O)c1cccc(NS(=O)(=O)c2ccc(C(=O)Nc3nc(-c4cccc(F)c4)cs3)cc2)c1; conditions: Homo sapiens; dose 6.3 µM, time 35.0 min; remark: listed apart in the source

Molecule | IC50 [1] [µM] | IC50 [2] [µM] | IC50 [3] [µM] | other results
COC(=O)CS(=O)(=O)c1ccc([C@@H](CO)NC(=O)c2cc3c(Cl)cc(C)cc3n2C)cc1 | 27.9 | 0.162 | > 100 | 
COCCNS(=O)(=O)c1ccc(C(=O)Nc2nc(-c3ccccc3)cs2)cc1 |  | 17.8 |  | 
CN(C)CCNS(=O)(=O)c1ccc(C(=O)Nc2nc(-c3ccccc3)cs2)cc1 |  | 15.7 |  | 
O=C(O)c1cccc(NS(=O)(=O)c2ccc(C(=O)Nc3nc(-c4ccccc4)cs3)cc2)c1 | > 100 | 3.59 | > 100 | 
O=C(Nc1nc(-c2ccccc2)cs1)c1ccc(S(=O)(=O)Nc2cccc(N3CCOCC3)c2)cc1 | > 100 | 7.04 | > 100 | 
O=C(Nc1nc(-c2ccccc2)cs1)c1ccc(S(=O)(=O)N2CCC(C(=O)O)CC2)cc1 |  | 13 |  | 
CC(=O)c1cccc(NS(=O)(=O)c2ccc(C(=O)Nc3nc(-c4ccccc4F)cs3)cc2)c1 | 65.4 | 3.8 | 62.9 | 
CC(=O)N1CCC(NS(=O)(=O)c2ccc(C(=O)Nc3nc(-c4ccccc4)cs3)cc2)CC1 | 72.3 | 6.81 | > 100 | 
O=C(Nc1nc(-c2ccccc2)cs1)c1ccc(S(=O)(=O)Nc2ccccc2)cc1 | 11.6 | 6.5 | > 100 | 
CC(=O)c1cccc(NS(=O)(=O)c2ccc(C(=O)Nc3nc(-c4ccc(F)c(F)c4)cs3)cc2)c1 |  | 17.2 |  | 
COc1ccccc1-c1csc(NC(=O)c2ccc(S(=O)(=O)Nc3cccc(C(C)=O)c3)cc2)n1 | 5.5 | 2.2 | > 100 | CLH [4]: 838.8 mL/min/g; CLH [5]: 153 mL/min/g; CLH [6]: 82 mL/min/g; half-life [7]: 13.7 min; half-life [8]: 2.5 min; half-life [9]: 26 min
O=C(Nc1nc(-c2ccccc2)cs1)c1ccc(S(=O)(=O)N2CCC(CCO)CC2)cc1 |  | 12.2 |  | 
O=C(Nc1nc(-c2ccccc2)cs1)c1ccc(S(=O)(=O)Nc2cccc(CCO)c2)cc1 | 8.1 | 7.49 | 93.4 | 
O=C(Nc1nc(-c2ccccc2)cs1)c1ccc(S(=O)(=O)Nc2cccc(CO)c2)cc1 | 10.1 | 7.74 | > 100 | 
CC(=O)c1cccc(NS(=O)(=O)c2ccc(C(=O)Nc3cc(-c4ccccc4)cs3)cc2)c1 |  | 12.9 |  | 
CC(=O)c1cccc(NS(=O)(=O)c2ccc(C(=O)Nc3nc(-c4cccc(C)c4)cs3)cc2)c1 | 3 | 2.4 | 100 | CLH [4]: 2378.4 mL/min/g; CLH [5]: 835.6 mL/min/g; CLH [6]: 1589.7 mL/min/g; half-life [7]: 2.5 min; half-life [8]: 0.9 min; half-life [9]: 1 min
COc1cccc(-c2csc(NC(=O)c3ccc(S(=O)(=O)Nc4cccc(C(C)=O)c4)cc3)n2)c1 | 4.8 | 4.8 | 100 | CLH [4]: 2500.2 mL/min/g; CLH [5]: 2471.9 mL/min/g; CLH [6]: 2485.8 mL/min/g; half-life [7]: 0.85 min; half-life [8]: 0.84 min; half-life [9]: 0.85 min

Molecule | IC50 [1] [µM] | IC50 [2] [µM] | IC50 [3] [µM] | other results
CNC(=O)c1cccc(NS(=O)(=O)c2ccc(C(=O)Nc3nc(-c4ccccc4)cs3)cc2)c1 | 15 | 4.96 | > 100 | 
CCOC(=O)c1sc(NC(=O)c2ccco2)c(SC#N)c1C | 20.9 |  | 57.2 | 
Cc1cc(Cl)c2cc(C(=O)N[C@H](CO)c3ccc(S(=O)(=O)CC(=O)O)cc3)n(C)c2c1 | > 100 | 0.106 | > 100 | IC50 [10]: 0.1 µM; IC50 [11]: > 3 µM
CC(=O)c1cccc(NS(=O)(=O)c2ccc(C(=O)Nc3nc(-c4ccc(F)cc4F)cs3)cc2)c1 |  | 6.7 |  | 
Cc1cc(C)nc(NS(=O)(=O)c2ccc(C(=O)Nc3nc(-c4ccccc4)cs3)cc2)n1 | 30.1 | 3.19 | 86.5 | 
CC(=O)c1cccc(NS(=O)(=O)c2ccc(C(=O)Nc3nc(-c4ccccc4)cs3)cc2)c1 | 8.4 | 5.33 | > 100 | 
O=C(O)CNS(=O)(=O)c1ccc(C(=O)Nc2nc(-c3ccccc3)cs2)cc1 |  | 15.8 |  | 
CC(=O)c1cccc(NS(=O)(=O)c2ccc(C(=O)Nc3nc(-c4cccc(O)c4)cs3)cc2)c1 | 69.3 |  |  | IC50 [12]: 55.7 µM; IC50 [13]: 84.7 µM; IC50 [14]: 89.7 µM; IC50 [15]: > 100 µM; IC50 [16]: 69.3 µM
O=C(Nc1nc(-c2ccccc2)cs1)c1ccc(S(=O)(=O)Cl)cc1 |  | 18.5 |  | 
CN1CCN(CCNS(=O)(=O)c2ccc(C(=O)Nc3nc(-c4ccccc4)cs3)cc2)CC1 |  | 11.4 |  | 
O=C(Nc1nc(-c2ccccc2)cs1)c1ccc(S(=O)(=O)NCCN2CCOCC2)cc1 |  | 10.8 |  | 
CC(=O)c1cccc(NS(=O)(=O)c2ccc(C(=O)Nc3nc(-c4ccc(F)cc4)cs3)cc2)c1 | 11.7 | 2.6 | 100 | 
O=C(O)Cc1cccc(NS(=O)(=O)c2ccc(C(=O)Nc3nc(-c4ccccc4)cs3)cc2)c1 | > 100 | 7.89 | > 100 | 
CN1CCN(c2cccc(NS(=O)(=O)c3ccc(C(=O)Nc4nc(-c5ccccc5)cs4)cc3)c2)CC1 | 9.7 | 6.16 | 25.5 | 
O=C(Nc1nc(-c2ccccc2)cs1)c1ccc(S(=O)(=O)O)cc1 | > 100 | 12.6 |  | 
D-3-phosphoglycerate dehydrogenase (Homo sapiens), O43175 (protein) MAFANLRKVLISDSLDPCCRKILQDGGLQVVEKQNLSKEELIAELQDCEGLIVRSATKVTADVINAAEKLQVVGRAGTGVDNVDLEAATRKGILVMNTPNGNSLSAAELTCGMIMCLARQIPQATASMKDGKWERKKFMGTELNGKTLGILGLGRIGREVATRMQSFGMKTIGYDPIISPEVSASFGVQQLPLEEIWPLCDFITVHTPLLPSTTGLLNDNTFAQCKKGVRVVNCARGGIVDEGALLRALQSGQCAGAALDVFTEEPPRDRALVDHENVISCPHLGASTKEAQSRCGEEIAVQFVDMVKGKSLTGVVNAQALTSAFSPHTKPWIGLAEALGTLMRAWAGSPKGTIQVITQGTSLKNAGNCLSPAVIVGLLKEASKQADVNLVNAKLLVKEAGLNVTTSHSPAAPGEQGFGECLLAVALAGAPYQAVGLVQGTTPVLQGLNGAVFRPEVPLRRDLPLLLFRTQTSDPAMLPTMIGLLAEAGVRLLSYQTSLVSDGETWHVMGISSLLPSLEAWKQHVTEAFQFHF |  |  |  | Km [17]: 33.4 µM; Km [18]: 72.9 µM; Km [19]: 448 µM; Km [20]: 51.6 µM; Km [21]: 495 µM; Km [22]: 64 µM; Km [23]: 510 µM
